In article PMC11202002, “P18: Novel Anticancer Peptide from Induced Tumor-Suppressing Cells Targeting Breast Cancer and Bone Metastasis” (Cancers, 2024):

How the values were obtained:
MDA-MB-436 cells [1] = assay: MTT-based cell viability assay; set-up: species or system human
Experimental: (§1) Using 96-well plates with approximately 2000 cells per well, an MTT-based metabolic activity assay was performed. The cells were treated with agents and incubated for two days. On the fourth day, they were stained with 0.5 mg/mL thiazolyl blue tetrazolium bromide (M5655, Sigma). The optical density, used to assess metabolic activity, was measured at 562 nm. For the EdU-based proliferation activity assay, the cells were seeded in 96-well plates at about 1000 cells per well. A fluorescence-based cell proliferation kit (Click-iT™, EdU Alexa Fluor™ 488 Imaging Kit; Thermo Fisher, Waltham, MA, USA) was used according to the manufacturer’s instructions.

MDA-MB-231 cells = assay: EdU-based proliferation assay; assay type: cell-based, human; details: 25 µg/mL
Experimental: as §1

MDA-MB-436 cells [2] = assay: EdU-based proliferation assay; assay type: cell-based, human; details: 25 µg/mL
Experimental: as §1

[3] = system: human triple-negative breast cancer tissue; assay: Ex vivo cancer tissue assay; assay type: cell-based; details: 25 µg/mL of P18; four days (96 h); n = 6
Experimental: The usage of human triple-negative breast cancer tissue was approved by the Indiana University Institutional Review Board (1911155674), and the tissues were received from the Indiana University Simon Comprehensive Cancer Center Tissue Procurement Core. Freshly isolated breast cancer tissue (~10 mg) was manually fragmented with a scalpel into small pieces (0.5~0.8 mm in length), which were grown in DMEM with 10% FBS and antibiotics for a day. […] The culture medium, consisting of these agents, was applied for 4 days, and a change in the fragment size was determined.

[4] = system: femurs inoculated with 4T1.2 mammary tumor cells; assay: Bone microenvironment assay (ex vivo bone culture, Western blot); assay type: cell-based, mouse; details: 25 μg/mL P18 daily; 2 weeks
Experimental: Cells were lysed using a RIPA lysis buffer (sc-24948, Santa Cruz Biotech, Dallas, TX, USA) containing protease inhibitors (PIA32963, Thermo Fisher) and phosphatase inhibitors (2006643, Cal-biochem, Billerica, MA, USA). The proteins were separated on 10–15% SDS gels (Bio-Rad Laboratories, Hercules, CA, USA) and transferred to a polyvinylidene difluoride membrane (IPVH00010, Millipore, Billerica, MA, USA). The membrane was incubated with primary antibodies, followed by incubation with secondary antibodies (7074S/7076S, Cell Signaling, Danvers, MA, USA). The antibodies used included those against Snail, p-Src, Src, cleaved caspase 3, caspase 3, RANKL, Cdc42, Col1 and RhoA (Cell Signaling), ALP (Santa Cruz Biotech), OCN (Abcam, Boston, MA, USA), with β-actin (Sigma) as a control. The protein levels were detected using SuperSignal West Femto Maximum Sensitivity Substrate (PI34096, Thermo Fisher) and a luminescent image analyzer (LAS-3000, Fuji Film, Tokyo, Japan).
Femora were collected from […] female mice (~10 weeks old), and the surrounding connective tissues were removed. The femora were cut in half at the mid-diaphysis, and a hole was created at the end of the sample using a 25-gauge needle. 4T1.2 mammary tumor cells (2.5 × 10^5 cells) were resuspended in 10 μL of culture medium and injected into the bone marrow cavity through the open end of the diaphysis. […]

Question: Which “decrease in MTT viability” value (MDA-MB-436 cells [1]; 5, 10, 15, and 25 µg/mL of P18) does the source give for TDYMVGSYGPR [P18] here?
Answer: dose-dependent

Question: What about the MTT-based relative viability (MDA-MB-436 cells [1]; relative to cn = 1.00, peptide concentration not given, treated two days, OD 562 nm) of the same sequence?
Answer: 0.82

Question: And the EdU-based proliferation (MDA-MB-231 cells)?
Answer: decreased

Question: And the EdU-based proliferation (MDA-MB-436 cells [2])?
Answer: inhibited

Question: And the “size of ex vivo breast tissue fragments” value [3]?
Answer: significant decrease in the size

Question: What about the “levels of c-Cas 3, Cdc42, and alkaline phosphatase (ALP)” value [4] of the same sequence?
Answer: upregulation
